Experiment [1] concerns the target full-length human PLD2 (Homo sapiens (Human), UniProt O14939). As to the kind of experiment: Evaluation of human PLD2 enzyme inhibitory activity (Amplex Red / choline oxidase fluorescence). Format: biochemical. In outline: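 Enzyme was N-terminal FLAG-tagged full-length human PLD2 (1-933), expressed in Expi293F cells and anti-FLAG purified. Compound (5% DMSO final) was incubated with enzyme (6 nmol/L solution) and 1,2-diheptanoyl-PC (6 mmol/L solution) in HEPES pH 7.5, KCl, EGTA, MgCl2, NP-40, BSA buffer for 60 min at room temperature. Choline was detected with Amplex Red/choline oxidase/HRP.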

Experiment [2] concerns the target full-length human PLD1 (Homo sapiens (Human), UniProt Q13393). As to the kind of experiment: Evaluation of human PLD1 enzyme inhibitory activity (Amplex Red / choline oxidase fluorescence). Format: biochemical. In outline: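 N-terminally FLAG-tagged full-length human PLD1 (1-1036), expressed in Expi293F and FLAG-purified, incubated with compound (5% DMSO final) and 1,2-diheptanoyl-sn-glycero-3-phosphocholine for 60 min at room temperature in HEPES pH 7.5 buffer. Released choline detected by Amplex Red/choline oxidase/HRP fluorescence.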

[3] abbreviates: full-length human PLD2 enzyme, read-out: PLD2 IC50.
Where [4] appears, read: full-length human PLD1 enzyme, read-out: PLD1 IC50.
[5] abbreviates: column 2 of continuation tables 2-12 to 2-14, read-out: human PLD2 enzyme inhibitory activity IC50.
The mark [6] stands for this setting: column 1 of continuation tables 2-12 to 2-14, read-out: human PLD1 enzyme inhibitory activity IC50.

Like-named read-outs stand apart in the source and are kept apart here. Some results are limits rather than exact numbers.

Sequence of full-length human PLD1 (Q13393 other isoform, or with tags, fused parts or gaps): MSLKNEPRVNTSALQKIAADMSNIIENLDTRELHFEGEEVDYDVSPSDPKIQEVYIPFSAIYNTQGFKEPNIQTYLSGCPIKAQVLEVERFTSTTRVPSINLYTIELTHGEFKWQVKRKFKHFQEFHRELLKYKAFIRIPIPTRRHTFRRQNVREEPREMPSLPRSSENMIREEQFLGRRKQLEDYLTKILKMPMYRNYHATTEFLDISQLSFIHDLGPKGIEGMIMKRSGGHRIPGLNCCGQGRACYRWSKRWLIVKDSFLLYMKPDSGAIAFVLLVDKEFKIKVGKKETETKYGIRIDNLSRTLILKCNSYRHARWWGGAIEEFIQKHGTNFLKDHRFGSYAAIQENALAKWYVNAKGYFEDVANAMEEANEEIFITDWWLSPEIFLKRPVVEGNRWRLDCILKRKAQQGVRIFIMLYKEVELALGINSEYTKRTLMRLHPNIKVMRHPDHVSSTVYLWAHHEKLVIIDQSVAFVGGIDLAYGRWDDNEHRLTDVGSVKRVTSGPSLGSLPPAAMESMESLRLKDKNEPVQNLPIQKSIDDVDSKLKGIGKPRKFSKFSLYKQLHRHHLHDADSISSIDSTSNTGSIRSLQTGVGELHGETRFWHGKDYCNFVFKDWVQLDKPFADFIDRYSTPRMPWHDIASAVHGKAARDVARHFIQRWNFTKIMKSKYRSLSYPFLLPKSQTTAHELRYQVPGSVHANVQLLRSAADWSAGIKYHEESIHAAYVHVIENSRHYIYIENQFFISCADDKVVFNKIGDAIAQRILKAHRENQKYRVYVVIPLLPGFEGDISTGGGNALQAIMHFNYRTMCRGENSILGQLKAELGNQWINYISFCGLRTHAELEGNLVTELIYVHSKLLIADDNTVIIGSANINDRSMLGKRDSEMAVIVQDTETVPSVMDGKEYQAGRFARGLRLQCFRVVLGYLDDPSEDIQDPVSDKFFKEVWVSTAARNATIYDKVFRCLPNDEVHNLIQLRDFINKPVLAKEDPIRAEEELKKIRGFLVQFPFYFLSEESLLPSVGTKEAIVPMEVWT
Sequence of full-length human PLD2 (O14939 whole entry): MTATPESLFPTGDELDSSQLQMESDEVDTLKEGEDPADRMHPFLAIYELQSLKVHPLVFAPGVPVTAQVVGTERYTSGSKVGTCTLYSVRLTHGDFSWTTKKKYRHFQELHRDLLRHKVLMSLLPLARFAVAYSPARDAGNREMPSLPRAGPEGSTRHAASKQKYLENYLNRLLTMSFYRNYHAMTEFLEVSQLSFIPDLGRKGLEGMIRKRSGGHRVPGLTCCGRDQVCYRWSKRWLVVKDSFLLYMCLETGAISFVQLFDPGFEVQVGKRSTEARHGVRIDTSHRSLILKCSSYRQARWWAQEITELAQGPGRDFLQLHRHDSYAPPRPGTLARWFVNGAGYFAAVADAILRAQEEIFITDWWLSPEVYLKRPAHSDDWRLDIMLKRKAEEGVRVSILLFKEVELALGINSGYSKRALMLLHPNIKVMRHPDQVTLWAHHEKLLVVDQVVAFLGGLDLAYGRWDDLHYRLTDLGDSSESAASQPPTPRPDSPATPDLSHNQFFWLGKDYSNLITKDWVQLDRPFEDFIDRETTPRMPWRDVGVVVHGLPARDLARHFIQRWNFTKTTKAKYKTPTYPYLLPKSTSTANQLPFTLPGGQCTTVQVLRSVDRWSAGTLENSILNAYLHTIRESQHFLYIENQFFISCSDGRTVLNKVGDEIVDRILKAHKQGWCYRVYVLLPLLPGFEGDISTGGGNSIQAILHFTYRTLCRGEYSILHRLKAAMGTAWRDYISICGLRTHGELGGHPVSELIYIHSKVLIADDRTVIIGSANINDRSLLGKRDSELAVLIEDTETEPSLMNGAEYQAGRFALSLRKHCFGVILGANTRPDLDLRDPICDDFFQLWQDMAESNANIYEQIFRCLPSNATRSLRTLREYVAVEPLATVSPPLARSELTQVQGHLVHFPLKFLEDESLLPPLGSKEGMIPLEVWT

For the compound `CNC(=O)C(=O)N[C@@H](C)C[C@H]1CC[C@]2(CC1)OC(=O)NN=C2c1cc(OC(F)F)ccc1C` [Example 194], the IC50 in experiment [1] (setting [3]) and in experiment [2] (setting [4]) was < 10 nM throughout.
Take `CNC(=O)C(=O)N[C@@H](C)CN1CCC2(CC1)OC(=O)NN=C2c1cccc(F)c1Br` [Example 2-030]: the figures for the IC50 in experiment [1] (setting [3]) and in experiment [2] (setting [4]) were 18 nM and 31 nM, respectively.
Consider `C[C@@H](CN1CCC2(CC1)OC(=O)NN=C2c1cc(C#N)ccc1Br)NC(=O)c1cc(F)c[nH]1` [Example 302], for which the IC50 (usually the concentration that inhibits the measured activity by half) in experiment [1] (setting [3]) is < 10 nM; in experiment [2] (setting [4]) it was 17 nM.
Taken in the same sequence, the figures for `CNC(=O)C(=O)N[C@@H](C)C[C@H]1CC[C@]2(CC1)OC(=O)NN=C2c1ccc(C#N)cc1Br` [Example 57, N^1—((S)-1-(cis-5-(2-bromo-4-cyanophenyl)-2-oxo-1-oxa-3,4-diazaspiro[5.5]undec-4-en-9-yl)propan-2-yl)-N^2-methyloxamide] were < 10 nM and 16 nM.
As to `CNC(=O)C(=O)N[C@@H](C)C[C@H]1CC[C@]2(CC1)OC(=O)NN=C2c1ccccc1S(C)(=O)=O` [Example 75], the IC50 came out at 1990 nM in experiment [1] (setting [3]) and 1630 nM in experiment [2] (setting [4]).
The like results for `Cc1cc(C(=O)N[C@@H](C)C[C@H]2CC[C@]3(CC2)OC(=O)NN=C3c2cccc(C#N)c2Br)[nH]n1` [Example 317] were, in that order, 65 nM and 71 nM.
The like results for `CNC(=O)C(=O)N[C@@H](C)C[C@H]1CC[C@]2(CC1)OC(=O)NN=C2c1ccc(F)cc1` [Example 6] were, in that order, 120 nM and 69 nM.
Taken in the same sequence, the figures for `CC(=O)N[C@@H](C)C[C@H]1CC[C@]2(CC1)OC(=O)NN=C2c1ccc(OC(F)F)cc1Br` [Example 141] were 164 nM and 141 nM.
Regarding `C[C@@H](C[C@H]1CC[C@]2(CC1)OC(=O)NN=C2c1ccc(F)cc1Br)NC(=O)N1CCOC2(CC2)C1` [Example 283], the IC50 in experiment [1] (setting [3]) was found to be 48 nM; in experiment [2] (setting [4]), 43 nM.
Taken in the same sequence, the figures for `Cc1cc(C(=O)N[C@@H](C)C[C@H]2CC[C@]3(CC2)OC(=O)NN=C3c2ccc(C#N)cc2C)[nH]n1` [Example 153] were 28 nM and 27 nM.
Taken in the same sequence, the figures for `CNC(=O)C(=O)N[C@@H](C)CN1CCC2(CC1)OC(=O)NN=C2c1ccccc1SC(F)(F)F` [Example 2-021] were 15 nM and 27 nM.
Consider `Cc1cc(C(=O)N[C@@H](C)CN2CCC3(CC2)OC(=O)NN=C3c2ccc(Cl)cc2C)[nH]n1` [Example 217], for which the IC50 in experiment [1] (setting [3]) is < 10 nM; in experiment [2] (setting [4]) it was 17 nM.
As for `C[C@@H](CN1CCC2(CC1)OC(=O)NN=C2c1ccc(F)cc1Cl)NC(=O)c1cc(C(F)(F)F)[nH]n1` [Example 100], the IC50 is 33 nM in experiment [1] (setting [3]) and 41 nM in experiment [2] (setting [4]).
In the case of `Cc1cc(F)ccc1C1=NNC(=O)O[C@]12CC[C@@H](C[C@H](C)NC(=O)c1ccc(Cl)cc1F)CC2` [Example 88], the IC50 was 65 nM in experiment [1] (setting [3]) and 56 nM in experiment [2] (setting [4]).
Taken in the same sequence, the figures for `CNC(=O)C(=O)N[C@@H](C)CN1CCC2(CC1)OC(=O)NN=C2c1cccc(C(F)(F)F)c1Br` [Example 2-051] were < 10 nM and 25 nM.
Take `CNC(=O)C(=O)N[C@@H](C)C[C@H]1CC[C@]2(CC1)OC(=O)NN=C2c1cnc(N2CCC(F)(F)C2)cc1C` [Example 248]: the IC50 was < 10 nM in experiment [1] (setting [3]) and 17 nM in experiment [2] (setting [4]).
The like results for `CNC(=O)C(=O)N[C@@H](C)C[C@H]1CC[C@]2(CC1)OC(=O)NN=C2c1cc(Br)ccc1C` [Example 212] were, in that order, < 10 nM and < 10 nM.
The like results for `CNC(=O)C(=O)N[C@@H](C)C[C@H]1CC[C@]2(CC1)OC(=O)NN=C2c1cc(OC)c(F)cc1Br` [Example 2-050] were, in that order, < 10 nM and 12 nM.
Taken in the same sequence, the figures for `Cc1cc(F)ccc1C1=NNC(=O)O[C@]12CC[C@@H](C[C@H](C)NC(=O)c1ccc(Cl)cn1)CC2` [Example 89] were 37 nM and 38 nM.
As for `[2H]C([2H])([2H])NC(=O)C(=O)N[C@@H](C)C[C@]1(C#N)CC[C@@]2(CC1)OC(=O)NN=C2c1cc(F)c(F)cc1Br` [Example 2-140], the IC50 in experiment [1] (setting [5]) was < 10 nM; in experiment [2] (setting [6]), 17 nM.
Regarding `Cc1cc(C(=O)N[C@@H](C)C[C@H]2CC[C@]3(CC2)OC(=O)NN=C3c2cnc(N3C[C@@H]4C[C@H]3CO4)cc2C)[nH]n1` [Example 250], the IC50 was < 10 nM in experiment [1] (setting [3]) and 22 nM in experiment [2] (setting [4]).
Taken in the same sequence, the figures for `Cc1cc(C(=O)N[C@@H](C)CN2CCC3(CC2)OC(=O)NN=C3c2ccc(Br)cc2C(F)(F)F)[nH]n1` [Example 331] were 22 nM and 32 nM.
The like results for `Cc1cc(C(=O)N[C@@H](C)C[C@H]2CC[C@]3(CC2)OC(=O)NN=C3c2ccc(C#N)cc2Br)[nH]n1` [Example 199] were, in that order, < 10 nM and 10 nM.
The like results for `CNC(=O)C(=O)N[C@@H](C)CN1CCC2(CC1)OC(=O)NN=C2c1ccc(C#N)cc1Br` [Example 206] were, in that order, 13 nM and 36 nM.
On to `COc1cc(C(=O)N[C@@H](C)C[C@H]2CC[C@]3(CC2)OC(=O)NN=C3c2ccc(F)cc2Br)on1` [Example 69], for which the IC50 in experiment [1] (setting [3]) and in experiment [2] (setting [4]) was < 10 nM throughout.
Take `CNC(=O)C(=O)N[C@@H](C)C[C@H]1CC[C@]2(CC1)OC(=O)NN=C2c1cnc(N2CC3CCC(C2)O3)cc1C` [Example 269]: the values for the IC50 in experiment [1] (setting [3]) and in experiment [2] (setting [4]) were < 10 nM and 18 nM, respectively.
The like results for `C[C@@H](C[C@H]1CC[C@]2(CC1)OC(=O)NN=C2c1ccc(F)cc1Br)NC(=O)c1cc2ccccc2o1` [Example 19] were, in that order, 10 nM and 17 nM.
Taken in the same sequence, the figures for `Cc1cc(C(=O)NC[C@H](C)N2CCC3(CC2)OC(=O)NN=C3c2ccc(C#N)cc2Br)[nH]n1` [Example 335] were < 10 nM and 126 nM.
Taken in the same sequence, the figures for `C[C@@H](C[C@H]1CC[C@]2(CC1)OC(=O)NN=C2c1ccc(F)cc1Br)NC(=O)C1CC1c1ccccc1` (single isomer, unassigned) [Example 39] were 24 nM and 93 nM.
For the compound `C[C@@H](C[C@H]1CC[C@]2(CC1)OC(=O)NN=C2c1ccc(S(C)(=O)=O)cc1Cl)NC(=O)c1cc2ccccc2o1` [Example 53], the IC50 in experiment [1] (setting [3]) was < 10 nM; in experiment [2] (setting [4]) it was 19 nM.
Taken in the same sequence, the figures for `CNC(=O)C(=O)N[C@@H](C)C[C@H]1CC[C@]2(CC1)OC(=O)NN=C2c1ccc(F)cc1OC` [Example 54] were < 10 nM and 20 nM.
The like results for `C[C@@H](C[C@]1(C#N)CC[C@@]2(CC1)OC(=O)NN=C2c1cc(C#N)ccc1Br)NC(=O)c1cc(Cl)no1` [Example 2-068] were, in that order, < 10 nM and < 10 nM.
The like results for `C[C@@H](C[C@H]1CC[C@]2(CC1)OC(=O)NN=C2c1ccc(F)cc1Br)NC(=O)c1cc(C(F)(F)F)n[nH]1` [Example 72] were, in that order, 24 nM and 34 nM.
Regarding `C[C@@H](C[C@H]1CC[C@]2(CC1)OC(=O)NN=C2c1cc(OC(F)(F)F)ccc1Br)NC(=O)c1cnn(C)c1` [Example 303], the IC50 is < 10 nM in experiment [1] (setting [3]) and 11 nM in experiment [2] (setting [4]).
The like results for `Cc1cc(N2CCOCC2)ccc1C1=NNC(=O)O[C@]12CC[C@@H](C[C@H](C)NC(=O)NC1CC1)CC2` [Example 229] were, in that order, 310 nM and 197 nM.
Taken in the same sequence, the figures for `C[C@@H](CN1CCC2(CC1)OC(=O)NN=C2c1cc(C#N)ccc1Br)NC(=O)C[C@@H](O)C(F)(F)F` [Example 2-002] were 1860 nM and 1250 nM.
For the compound `CNC(=O)C(=O)N[C@@H](C)C[C@H]1CC[C@]2(CC1)OC(=O)NN=C2c1ccc(C(C)(C)O)cc1Br` [Example 96], the IC50 was < 10 nM in experiment [1] (setting [3]) and 18 nM in experiment [2] (setting [4]).
Taken in the same sequence, the figures for `C[C@@H](CN1CCC2(CC1)OC(=O)NN=C2c1ccc(C(N)=O)cc1Br)NC(=O)c1cnn(C)c1` [Example 337] were 28 nM and 74 nM.
With `[2H]C([2H])([2H])NC(=O)C(=O)N[C@@H](C)C[C@]1(C#N)CC[C@@]2(CC1)OC(=O)NN=C2c1ccccc1Br` [Example 2-164], the IC50 in experiment [1] (setting [5]) and in experiment [2] (setting [6]) was < 10 nM in each case.
In the case of `CNC(=O)C(=O)NC[C@H](C)N1CCC2(CC1)OC(=O)NN=C2c1ccc(C#N)cc1Br` [Example 329], the figures for the IC50 in experiment [1] (setting [3]) and in experiment [2] (setting [4]) were < 10 nM and 51 nM, respectively.
The like results for `Cc1cc(C(=O)N[C@@H](C)CN2CCC3(CC2)OC(=O)NN=C3c2cc(C#N)ccc2Br)[nH]n1` [Example 312] were, in that order, < 10 nM and 29 nM.
Taken in the same sequence, the figures for `CNC(=O)C(=O)N[C@@H](C)C[C@H]1CC[C@]2(CC1)OC(=O)NN=C2c1cc(C(C)(C)O)ccc1Br` [Example 2-026] were < 10 nM and 12 nM.
The like results for `[2H]C([2H])([2H])NC(=O)C(=O)NC(C)CN1CCC2(CC1)OC(=O)NN=C2c1cc(C#N)ccc1Cl` (stereo not shown) [Example 2-008] were, in that order, 11 nM and 62 nM.
With `C[C@@H](C[C@H]1CC[C@]2(CC1)OC(=O)NN=C2c1cc(C#N)ccc1Br)NC(=O)NC1CC1` [Example 222, 1-((S)-1-(cis-5-(2-bromo-5-cyanophenyl)-2-oxo-1-oxa-3,4-diazaspiro[5.5]undec-4-en-9-yl)propan-2-yl)-3-cyclopropylurea], the IC50 in experiment [1] (setting [3]) came to 171 nM; in experiment [2] (setting [4]) it was 59 nM.

The values are drawn from patent US20240101572A1, “DIHYDROOXADIAZINONE COMPOUND AND PHARMACEUTICAL USE THEREOF” (Japan Tobacco Inc., priority 2022, published 2024).
